System: GUMC-403
Test: viability at highest tested concentration (max response) relative to DMSO (% of DMSO control); higher = less cytotoxic
Details: library / dose series: MIPE library, 11-point 1:3 dilution, 48 h
In short: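 Plates of 1536 wells were seeded with 700 patient-derived GUMC-403 papilloma cells per well, grown by conditional reprogramming, in 5 μL F + Y medium and kept overnight at 37 °C. Compounds followed at 23 nL by pin tool over an 11-point 1:3 series, for 48 h. After a CellTiter-Glo luminescence read on a ViewLux, signals were set against vehicle wells as 100% and empty wells as 0%. The reported number is viability at the highest tested concentration relative to vehicle control.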

SMILES | viability (top concentration 46.1 µM) | viability (top concentration 23 µM)
OC(=O)\C1=C\N(C2CC2)C3=CC(=C(F)C=C3C1=O)N4CCNCC4 | 105 | 
COC1=C2OC(=O)\C=C/C2=CC3=C1OC=C3 | 102 | 
CC(=O)O[C@@]1(CC[C@H]2[C@@H]3\C=C(Cl)/C4=C/C(=O)[C@@H]5C[C@@H]5[C@]4(C)[C@H]3CC[C@]12C)C(C)=O | 76.4 | 
CCCCC(C=O)NC(=O)C(CC(C)C)NC(=O)OCc1ccccc1 (configuration not stated) | 82 | 
C[C@]12CC[C@H]3[C@@H](C\C=C/4C[C@@H](O)CC[C@]34C)[C@@H]1CCC2=O | 101 | 
CN[C@@H]1CN(C[C@H]1OC)C2=NC3=C(C=C2)C(=O)C(=C\N3C4=NC=CS4)/C(O)=O |  | 94.4
COc1cc2c(Oc3ccc(NC(=O)C4(C(=O)Nc5ccc(F)cc5)CC4)cc3F)ccnc2cc1OCCCN1CCOCC1 | 23.1 | 
Cc1onc(-c2ccccc2Cl)c1C(=O)N[C@@H]1C(=O)N2[C@@H]1SC(C)(C)[C@@H]2C(=O)[O-] | 111 | 
COc1ccc2nc3cc(Cl)ccc3c(Nc3cc(CN4CCCC4)c(O)c(CN4CCCC4)c3)c2n1 | 116 | 
c1ccc2c(Oc3nc(Nc4ccc(N5CCOCC5)cc4)c4ncn(C5CCCCC5)c4n3)cccc2c1 | 124 | 
CN(C)[C@H]\1[C@@H]2[C@@H](O)[C@@H]\3C(=C)C4=C(C(=CC=C4)O)C(=O)C3=C(\O)[C@@]2(O)C(=O)\C(=C1O)C(N)=O | 96.5 | 
CCOCC(O)COc1ccc(NC(=O)CC[S+](C)C)cc1 (configuration not stated) | 111 | 
OC(CN1CCN(c2cccc(Cl)c2)CC1)C(c1ccccc1)c1ccccc1 (configuration not stated) | 92 | 
COc1cc(C(=O)N2CCC(N3CCN(C)CC3)CC2)ccc1Nc1ncc2c(n1)N(C)c1ccccc1C(=O)N2C | 78.9 | 
OC[C@H]1O[C@H](C[C@@H]1O)N2\C=C(F)/C(=O)NC2=O | 65.7 | 
CCCN1CCO[C@@H]2c3cc(O)ccc3OC[C@H]21 | 102 | 

SMILES | viability (top concentration 46.1 µM) | viability (top concentration 23 µM)
C\C1=C(\C=C(C#N)/C(=O)N1)C2=C[N]3C=CN=C3C=C2 | 96 | 
CCc1cc(-c2n[nH]c(C)c2-c2ccc3c(c2)OCCO3)c(O)cc1O | 88.7 | 
CC[C@@H]1C(=O)N(C)c2cnc(Nc3ccc(C(=O)NC4CCN(C)CC4)cc3OC)nc2N1C1CCCC1 | 41.8 | 
C[C@@H](CN1CC(=O)NC(=O)C1)N1CC(=O)NC(=O)C1 | 118 | 
CC(C)N(CC[C@H](c1ccccc1)c1cc(CO)ccc1O)C(C)C | 137 | 
Oc1ccc2c3c1O[C@H]1c4[nH]c5c(c4C[C@@]4(O)[C@@H](C2)N(CC2CC2)CC[C@]314)C[C@@]1(O)[C@H]2Cc3ccc(O)c4c3[C@@]1(CCN2CC1CC1)[C@H]5O4 | 142 | 
O=[S+]([O-])(O)c1ccc2cc(/N=N/c3cc([S+](=O)([O-])O)c4cccnc4c3O)ccc2c1 | 126 | 
CC(C)OC(=O)[C@H](C)N[P@](=O)(OC[C@H]1O[C@@H](N2\C=C/C(=O)NC2=O)[C@](C)(F)[C@@H]1O)OC3=CC=CC=C3 | 107 | 
C1CN\2C[C@@H](\N=C2S1)C3=CC=CC=C3 | 125 | 
CC(=O)N[C@@H]1[C@@H](NC(N)=N)\C=C(/O[C@H]1[C@H](O)[C@H](O)CO)C(O)=O | 129 | 
C[C@@H](NCCCc1cccc(C(F)(F)F)c1)c1cccc2ccccc12 | 99.7 | 
COc1ccc2cccc(CCNC(C)=O)c2c1 | 108 | 
CC1=CC(=CC(=C1C\C2=N\CCN2)C)C(C)(C)C | 130 | 
CCOC(=O)c1ccc(C#Cc2ccc3c(c2)C(C)(C)CCS3)nc1 | 118 | 
Nc1nc(Cl)nc2c1ncn2[C@@H]1O[C@H](CO)[C@@H](O)[C@@H]1F | 104 | 
O=C1c2c(O)cc(O)cc2OC(c2ccc(O)c(O)c2)C1O (configuration not stated) | 116 | 

Reference: the supplement of paper PMC6723410
